Source: PubChem BioAssay (NCI)
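Assay format: 96-well plates, 48-hour exposure. GI50 = concentration required for 50% inhibition of growth. TGI marks complete inhibition of growth.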

test system: SK-MEL-2 melanoma; experiment: NCI tumour cell line growth inhibition, 48 h

SMILES | TGI
c1ccc(-c2ccnc3c2ccc2c(-c4ccccc4)ccnc23)cc1 | 11.4 µM
CC(=O)NC(CCCN(Cc1ccccc1)C(=O)N(C)N=O)C(=O)NCc1ccccc1 (configuration not stated) | > 100 µM
O=C(/C=C/C1C(=O)NC(=O)NC1=O)CC(=O)C(=O)Nc1cc(Cl)c(Cl)cc1Cl | > 100 µM
c1ccc(-c2nnc3nn4c(-c5ccccc5)cnnc4c3c2-c2ccccc2)cc1 | > 100 µM
CCOC(=O)C(C)N1C(=O)c2ccccc2S1(=O)=O (configuration not stated) | > 100 µM
COc1cc(C(C#N)NNc2nc(C)cc(=O)[nH]2)cc(OC)c1OC (configuration not stated) | > 100 µM
COC(=O)C(C(=O)C(N)=O)c1csc(-n2nc(-c3ccccc3)cc2-c2ccccc2)n1 (configuration not stated) | > 31.6 µM

test system: DMS 273 small cell lung; experiment: NCI tumour cell line growth inhibition, 48 h

SMILES | TGI
c1ccc(-c2ccnc3c2ccc2c(-c4ccccc4)ccnc23)cc1 | 9.5 µM
CC(=O)NC(CCCN(Cc1ccccc1)C(=O)N(C)N=O)C(=O)NCc1ccccc1 (configuration not stated) | > 100 µM
O=C(/C=C/C1C(=O)NC(=O)NC1=O)CC(=O)C(=O)Nc1cc(Cl)c(Cl)cc1Cl | > 100 µM
c1ccc(-c2nnc3nn4c(-c5ccccc5)cnnc4c3c2-c2ccccc2)cc1 | > 100 µM
CCOC(=O)C(C)N1C(=O)c2ccccc2S1(=O)=O (configuration not stated) | > 100 µM
COc1cc(C(C#N)NNc2nc(C)cc(=O)[nH]2)cc(OC)c1OC (configuration not stated) | > 100 µM
COC(=O)C(C(=O)C(N)=O)c1csc(-n2nc(-c3ccccc3)cc2-c2ccccc2)n1 (configuration not stated) | > 31.6 µM

test system: RXF 393 renal; experiment: NCI tumour cell line growth inhibition, 48 h

SMILES | TGI | GI50
c1ccc(-c2ccnc3c2ccc2c(-c4ccccc4)ccnc23)cc1 | 6.05 µM | 
CC(=O)NC(CCCN(Cc1ccccc1)C(=O)N(C)N=O)C(=O)NCc1ccccc1 (configuration not stated) | > 100 µM | 
O=C(/C=C/C1C(=O)NC(=O)NC1=O)CC(=O)C(=O)Nc1cc(Cl)c(Cl)cc1Cl | > 100 µM | 
c1ccc(-c2nnc3nn4c(-c5ccccc5)cnnc4c3c2-c2ccccc2)cc1 | 46.3 µM | 
CCOC(=O)C(C)N1C(=O)c2ccccc2S1(=O)=O (configuration not stated) | > 100 µM | > 100 µM
COc1cc(C(C#N)NNc2nc(C)cc(=O)[nH]2)cc(OC)c1OC (configuration not stated) | > 100 µM | 
COC(=O)C(C(=O)C(N)=O)c1csc(-n2nc(-c3ccccc3)cc2-c2ccccc2)n1 (configuration not stated) | > 31.6 µM | 

test system: EKVX NSCLC; experiment: NCI tumour cell line growth inhibition, 48 h

SMILES | TGI
c1ccc(-c2ccnc3c2ccc2c(-c4ccccc4)ccnc23)cc1 | 5.53 µM
CC(=O)NC(CCCN(Cc1ccccc1)C(=O)N(C)N=O)C(=O)NCc1ccccc1 (configuration not stated) | > 100 µM
O=C(/C=C/C1C(=O)NC(=O)NC1=O)CC(=O)C(=O)Nc1cc(Cl)c(Cl)cc1Cl | > 100 µM
c1ccc(-c2nnc3nn4c(-c5ccccc5)cnnc4c3c2-c2ccccc2)cc1 | 70.9 µM
CCOC(=O)C(C)N1C(=O)c2ccccc2S1(=O)=O (configuration not stated) | > 100 µM
COC(=O)C(C(=O)C(N)=O)c1csc(-n2nc(-c3ccccc3)cc2-c2ccccc2)n1 (configuration not stated) | > 31.6 µM

test system: OVCAR-5 ovarian; experiment: NCI tumour cell line growth inhibition, 48 h

SMILES | TGI
c1ccc(-c2ccnc3c2ccc2c(-c4ccccc4)ccnc23)cc1 | 11.8 µM
CC(=O)NC(CCCN(Cc1ccccc1)C(=O)N(C)N=O)C(=O)NCc1ccccc1 (configuration not stated) | > 100 µM
O=C(/C=C/C1C(=O)NC(=O)NC1=O)CC(=O)C(=O)Nc1cc(Cl)c(Cl)cc1Cl | > 100 µM
c1ccc(-c2nnc3nn4c(-c5ccccc5)cnnc4c3c2-c2ccccc2)cc1 | > 100 µM
CCOC(=O)C(C)N1C(=O)c2ccccc2S1(=O)=O (configuration not stated) | > 100 µM
COc1cc(C(C#N)NNc2nc(C)cc(=O)[nH]2)cc(OC)c1OC (configuration not stated) | > 100 µM
COC(=O)C(C(=O)C(N)=O)c1csc(-n2nc(-c3ccccc3)cc2-c2ccccc2)n1 (configuration not stated) | > 100 µM

test system: MOLT-4 leukemia; experiment: NCI tumour cell line growth inhibition, 48 h

SMILES | TGI
c1ccc(-c2ccnc3c2ccc2c(-c4ccccc4)ccnc23)cc1 | 2.93 µM
CC(=O)NC(CCCN(Cc1ccccc1)C(=O)N(C)N=O)C(=O)NCc1ccccc1 (configuration not stated) | > 100 µM
O=C(/C=C/C1C(=O)NC(=O)NC1=O)CC(=O)C(=O)Nc1cc(Cl)c(Cl)cc1Cl | > 100 µM
c1ccc(-c2nnc3nn4c(-c5ccccc5)cnnc4c3c2-c2ccccc2)cc1 | > 100 µM
CCOC(=O)C(C)N1C(=O)c2ccccc2S1(=O)=O (configuration not stated) | > 100 µM
COC(=O)C(C(=O)C(N)=O)c1csc(-n2nc(-c3ccccc3)cc2-c2ccccc2)n1 (configuration not stated) | > 31.6 µM

test system: SF-295 CNS; experiment: NCI tumour cell line growth inhibition, 48 h

SMILES | TGI
CC(=O)NC(CCCN(Cc1ccccc1)C(=O)N(C)N=O)C(=O)NCc1ccccc1 (configuration not stated) | > 100 µM
O=C(/C=C/C1C(=O)NC(=O)NC1=O)CC(=O)C(=O)Nc1cc(Cl)c(Cl)cc1Cl | > 100 µM
c1ccc(-c2nnc3nn4c(-c5ccccc5)cnnc4c3c2-c2ccccc2)cc1 | > 100 µM
CCOC(=O)C(C)N1C(=O)c2ccccc2S1(=O)=O (configuration not stated) | > 100 µM
COc1cc(C(C#N)NNc2nc(C)cc(=O)[nH]2)cc(OC)c1OC (configuration not stated) | > 100 µM
COC(=O)C(C(=O)C(N)=O)c1csc(-n2nc(-c3ccccc3)cc2-c2ccccc2)n1 (configuration not stated) | > 100 µM

test system: SK-MEL-28 melanoma; experiment: NCI tumour cell line growth inhibition, 48 h

SMILES | TGI
c1ccc(-c2ccnc3c2ccc2c(-c4ccccc4)ccnc23)cc1 | 19.9 µM
CC(=O)NC(CCCN(Cc1ccccc1)C(=O)N(C)N=O)C(=O)NCc1ccccc1 (configuration not stated) | > 100 µM
O=C(/C=C/C1C(=O)NC(=O)NC1=O)CC(=O)C(=O)Nc1cc(Cl)c(Cl)cc1Cl | > 100 µM
c1ccc(-c2nnc3nn4c(-c5ccccc5)cnnc4c3c2-c2ccccc2)cc1 | > 100 µM
CCOC(=O)C(C)N1C(=O)c2ccccc2S1(=O)=O (configuration not stated) | > 100 µM
COc1cc(C(C#N)NNc2nc(C)cc(=O)[nH]2)cc(OC)c1OC (configuration not stated) | > 100 µM
COC(=O)C(C(=O)C(N)=O)c1csc(-n2nc(-c3ccccc3)cc2-c2ccccc2)n1 (configuration not stated) | > 31.6 µM

test system: OVCAR-8 ovarian; experiment: NCI tumour cell line growth inhibition, 48 h

SMILES | TGI
c1ccc(-c2ccnc3c2ccc2c(-c4ccccc4)ccnc23)cc1 | 4.75 µM
CC(=O)NC(CCCN(Cc1ccccc1)C(=O)N(C)N=O)C(=O)NCc1ccccc1 (configuration not stated) | > 100 µM
O=C(/C=C/C1C(=O)NC(=O)NC1=O)CC(=O)C(=O)Nc1cc(Cl)c(Cl)cc1Cl | > 100 µM
c1ccc(-c2nnc3nn4c(-c5ccccc5)cnnc4c3c2-c2ccccc2)cc1 | > 100 µM
CCOC(=O)C(C)N1C(=O)c2ccccc2S1(=O)=O (configuration not stated) | > 100 µM
COc1cc(C(C#N)NNc2nc(C)cc(=O)[nH]2)cc(OC)c1OC (configuration not stated) | > 100 µM
COC(=O)C(C(=O)C(N)=O)c1csc(-n2nc(-c3ccccc3)cc2-c2ccccc2)n1 (configuration not stated) | > 31.6 µM

test system: MALME-3M melanoma; experiment: NCI tumour cell line growth inhibition, 48 h

SMILES | TGI
c1ccc(-c2ccnc3c2ccc2c(-c4ccccc4)ccnc23)cc1 | 13.5 µM
CC(=O)NC(CCCN(Cc1ccccc1)C(=O)N(C)N=O)C(=O)NCc1ccccc1 (configuration not stated) | > 100 µM
O=C(/C=C/C1C(=O)NC(=O)NC1=O)CC(=O)C(=O)Nc1cc(Cl)c(Cl)cc1Cl | > 100 µM
c1ccc(-c2nnc3nn4c(-c5ccccc5)cnnc4c3c2-c2ccccc2)cc1 | > 100 µM
CCOC(=O)C(C)N1C(=O)c2ccccc2S1(=O)=O (configuration not stated) | > 100 µM
COc1cc(C(C#N)NNc2nc(C)cc(=O)[nH]2)cc(OC)c1OC (configuration not stated) | > 100 µM
COC(=O)C(C(=O)C(N)=O)c1csc(-n2nc(-c3ccccc3)cc2-c2ccccc2)n1 (configuration not stated) | > 31.6 µM

test system: SK-MEL-5 melanoma; experiment: NCI tumour cell line growth inhibition, 48 h

SMILES | TGI
c1ccc(-c2ccnc3c2ccc2c(-c4ccccc4)ccnc23)cc1 | 11.2 µM
CC(=O)NC(CCCN(Cc1ccccc1)C(=O)N(C)N=O)C(=O)NCc1ccccc1 (configuration not stated) | > 100 µM
O=C(/C=C/C1C(=O)NC(=O)NC1=O)CC(=O)C(=O)Nc1cc(Cl)c(Cl)cc1Cl | > 100 µM
c1ccc(-c2nnc3nn4c(-c5ccccc5)cnnc4c3c2-c2ccccc2)cc1 | > 100 µM
CCOC(=O)C(C)N1C(=O)c2ccccc2S1(=O)=O (configuration not stated) | > 100 µM
COc1cc(C(C#N)NNc2nc(C)cc(=O)[nH]2)cc(OC)c1OC (configuration not stated) | > 100 µM
COC(=O)C(C(=O)C(N)=O)c1csc(-n2nc(-c3ccccc3)cc2-c2ccccc2)n1 (configuration not stated) | > 31.6 µM

test system: DLD-1 colon; experiment: NCI tumour cell line growth inhibition, 48 h

SMILES | TGI
c1ccc(-c2ccnc3c2ccc2c(-c4ccccc4)ccnc23)cc1 | 15.3 µM
CC(=O)NC(CCCN(Cc1ccccc1)C(=O)N(C)N=O)C(=O)NCc1ccccc1 (configuration not stated) | > 100 µM
O=C(/C=C/C1C(=O)NC(=O)NC1=O)CC(=O)C(=O)Nc1cc(Cl)c(Cl)cc1Cl | > 100 µM
c1ccc(-c2nnc3nn4c(-c5ccccc5)cnnc4c3c2-c2ccccc2)cc1 | > 100 µM
CCOC(=O)C(C)N1C(=O)c2ccccc2S1(=O)=O (configuration not stated) | > 100 µM
COc1cc(C(C#N)NNc2nc(C)cc(=O)[nH]2)cc(OC)c1OC (configuration not stated) | > 100 µM
COC(=O)C(C(=O)C(N)=O)c1csc(-n2nc(-c3ccccc3)cc2-c2ccccc2)n1 (configuration not stated) | > 31.6 µM

test system: KM20L2 colon; experiment: NCI tumour cell line growth inhibition, 48 h

SMILES | TGI
c1ccc(-c2ccnc3c2ccc2c(-c4ccccc4)ccnc23)cc1 | 16.5 µM
CC(=O)NC(CCCN(Cc1ccccc1)C(=O)N(C)N=O)C(=O)NCc1ccccc1 (configuration not stated) | > 100 µM
O=C(/C=C/C1C(=O)NC(=O)NC1=O)CC(=O)C(=O)Nc1cc(Cl)c(Cl)cc1Cl | > 100 µM
c1ccc(-c2nnc3nn4c(-c5ccccc5)cnnc4c3c2-c2ccccc2)cc1 | > 100 µM
COc1cc(C(C#N)NNc2nc(C)cc(=O)[nH]2)cc(OC)c1OC (configuration not stated) | > 100 µM
COC(=O)C(C(=O)C(N)=O)c1csc(-n2nc(-c3ccccc3)cc2-c2ccccc2)n1 (configuration not stated) | > 31.6 µM

test system: SF-539 CNS; experiment: NCI tumour cell line growth inhibition, 48 h

SMILES | TGI
c1ccc(-c2ccnc3c2ccc2c(-c4ccccc4)ccnc23)cc1 | 5.62 µM
CC(=O)NC(CCCN(Cc1ccccc1)C(=O)N(C)N=O)C(=O)NCc1ccccc1 (configuration not stated) | > 100 µM
O=C(/C=C/C1C(=O)NC(=O)NC1=O)CC(=O)C(=O)Nc1cc(Cl)c(Cl)cc1Cl | > 100 µM
c1ccc(-c2nnc3nn4c(-c5ccccc5)cnnc4c3c2-c2ccccc2)cc1 | 99.5 µM
CCOC(=O)C(C)N1C(=O)c2ccccc2S1(=O)=O (configuration not stated) | > 100 µM
COc1cc(C(C#N)NNc2nc(C)cc(=O)[nH]2)cc(OC)c1OC (configuration not stated) | > 100 µM
COC(=O)C(C(=O)C(N)=O)c1csc(-n2nc(-c3ccccc3)cc2-c2ccccc2)n1 (configuration not stated) | > 31.6 µM

test system: HOP-62 NSCLC; experiment: NCI tumour cell line growth inhibition, 48 h

SMILES | TGI
c1ccc(-c2ccnc3c2ccc2c(-c4ccccc4)ccnc23)cc1 | 7.86 µM
CC(=O)NC(CCCN(Cc1ccccc1)C(=O)N(C)N=O)C(=O)NCc1ccccc1 (configuration not stated) | > 100 µM
